{"source": "ChEMBL document CHEMBL1129118", "about": "“New heteroaryl-spaced phosphono -amino acids are competitive NMDA antagonists with analgesic activity” (Bioorg Med Chem Lett, 1996)", "data": [{"test_system": "Mus musculus", "assay": "Tested for its analgesic activity in the mouse formalin test (20 umol/kg 1 % formaldehyde injected into a hind paw, licking of the paw scored 15-30 min after formalin injection)", "type": "functional", "units": {"ED50": "µmol/kg"}, "values": [{"smiles": "CCOc1ccc2cc(CP(=O)(O)O)c(C[C@@H](N)C(=O)O)nc2c1", "ED50": 150}]}, {"test_system": "Mus musculus", "assay": "Analgesic activity was evaluated in the mouse formalin test (20 uM/Kg 1% formaldehyde injected into a hind paw, licking of the paw scored 15-30 min after formalin injection)", "type": "functional", "units": {"ED50": "µmol/kg"}, "values": [{"smiles": "N[C@H](Cc1nc2ccc(Cl)cc2cc1CP(=O)(O)O)C(=O)O", "ED50": 200}]}, {"test_system": "Mus musculus", "assay": "Analgesic activity was evaluated in the mouse formalin test (20 umol/kg 1 % formaldehyde injected into a hind paw, licking of the paw scored 15-30 min after formalin injection)", "type": "functional", "units": {"ED50": "µmol/kg"}, "values": [{"smiles": "Cc1cc2cc(CP(=O)(O)O)c(C[C@@H](N)C(=O)O)nc2cc1C", "ED50": 42}, {"smiles": "N[C@H](Cc1nc2cc(Cl)ccc2cc1CP(=O)(O)O)C(=O)O", "ED50": 60}]}, {"target": "Glutamate NMDA receptor", "assay": "Binding affinity to the glutamate site of the NMDA receptor was measured by competitive inhibition of binding of [3H]-CGP- 39653 to rat or porcine cerebral cortex membranes", "type": "cell membranes, Membrane", "units": {"Ki": "µM"}, "values": [{"smiles": "N[C@H](Cc1nc2ccccc2cc1CP(=O)(O)O)C(=O)O", "Ki": 0.123}, {"smiles": "NC(Cc1nc2cc(Cl)c(Cl)cc2nc1CP(=O)(O)O)C(=O)O", "note": "(stereo unspecified)", "Ki": 0.0034}, {"smiles": "COc1cc2cc(CP(=O)(O)O)c(C[C@@H](N)C(=O)O)nc2cc1OC", "Ki": 0.95}, {"smiles": "Cc1ccc2cc(CP(=O)(O)O)c(C[C@@H](N)C(=O)O)nc2c1", "Ki": 0.054}, {"smiles": "O=C(O)[C@@H]1C[C@H](CP(=O)(O)O)CCN1", "note": "(relative stereo) [SELFOTEL]", "Ki": 0.029}, {"smiles": "N[C@H](Cc1nc2ccc(F)cc2cc1CP(=O)(O)O)C(=O)O", "Ki": 0.14}, {"smiles": "Cc1cc2cc(CP(=O)(O)O)c(C[C@@H](N)C(=O)O)nc2cc1Cl", "Ki": 0.004}, {"smiles": "Cc1cc2cc(CP(=O)(O)O)c(C[C@@H](N)C(=O)O)nc2cc1C", "Ki": 0.005}, {"smiles": "N[C@H](Cc1nc2c(Cl)cc(Cl)cc2cc1CP(=O)(O)O)C(=O)O", "Ki": 0.029}, {"smiles": "Cc1cc2cc(CP(=O)(O)O)c(C[C@H](N)C(=O)O)nc2cc1C", "Ki": 0.43}, {"smiles": "N[C@H](Cc1nc2cccc(Cl)c2cc1CP(=O)(O)O)C(=O)O", "Ki": 0.12}, {"smiles": "N[C@H](Cc1nc2ncccc2cc1CP(=O)(O)O)C(=O)O", "Ki": 0.074}, {"smiles": "N[C@H](Cc1nc2cc(Cl)c(Cl)cc2n1CP(=O)(O)O)C(=O)O", "Ki": 0.0182}, {"smiles": "NC(Cc1oc2ccccc2c1CP(=O)(O)O)C(=O)O", "note": "(stereo unspecified)", "Ki": 2.7}, {"smiles": "CCc1cc2cc(CP(=O)(O)O)c(C[C@@H](N)C(=O)O)nc2cc1CC", "Ki": 0.004}, {"smiles": "N[C@H](Cc1nc2cc(Cl)ccc2cc1CP(=O)(O)O)C(=O)O", "Ki": 0.02}, {"smiles": "N[C@H](Cc1nc2ccncc2cc1CP(=O)(O)O)C(=O)O", "Ki": 0.722}, {"smiles": "N[C@H](Cc1nc2ccc(Cl)cc2cc1CP(=O)(O)O)C(=O)O", "Ki": 0.057}, {"smiles": "NC(Cc1cc2ccccc2cc1CP(=O)(O)O)C(=O)O", "note": "(stereo unspecified)", "Ki": 0.14}, {"smiles": "N[C@H](Cc1nc2cc(Cl)c(Cl)cc2cc1CP(=O)(O)O)C(=O)O", "Ki": 0.005}, {"smiles": "CCOc1ccc2cc(CP(=O)(O)O)c(C[C@@H](N)C(=O)O)nc2c1", "Ki": 0.029}, {"smiles": "CCC/C(=C\\C(N)C(=O)O)CP(=O)(O)O", "note": "(stereo unspecified)", "Ki": 0.013}]}]}
